Laboratory results: patent publication US9561215B2, “BAX-activating cancer therapeutics” (The University of Louisville Research Foundation Inc., priority 2014, dated 2017)

Legend:
[1] = system: anti-apoptotic Bcl-2 proteins, including Bcl-2, Bcl-xL, and Bcl-w; conditions: cited from earlier work
[2] = system: Bak^−/−Bax^−/− MEF cells stably re-expressing Bax, Bak, or the empty vector; assay: Cell death by propidium iodide exclusion in MEF cells re-expressing Bax or Bak; assay type: cell-based; conditions: for rank by activity to induce Bax-dependent apoptosis: rank among the six Bax activator compounds
Description: (§1) Cell lines: Bak^−/−Bax^−/− murine embryonic fibroblast (MEF) cells expressing the empty vector, Bak or Bax were cultured as described previously. Human non-small cell lung carcinoma A549 and human pancreatic carcinoma Panc-1 were purchased from ATCC (Manassas, Va.). Untransformed and transformed MEF cells were kindly provided by Dr. Wei-Xing Zong. Bax^+/− and Bax^−/− HCT116 cells were obtained from Drs. Bert Vogelstein and Kenneth Kinzler. All cells were cultured at 37° C. in a 5% CO2 incubator as described previously (42). To generate A549 cells with reduced Bax expression or vector control, cells were first infected by Bax shRNA lentiviral particles or control shRNA lentiviral particles (Santa Cruz). Stable cells were obtained by culturing cells in the medium with 10 μg/ml puromycin.
(§2) Cell death analysis and Chou-Talalay synergism assay: Cell viability was measured by propidium iodide exclusion using flow cytometry (FACSCalibur, Becton Dickinson) as described previously. The synergistic effect between compound 106 and carboplatin or ABT-737 on cell viability was determined by Chou-Talalay median dose effect assay. IC50 of compound 106, carboplatin, and ABT-7373 on a tumor cell line was first determined. Different combinations of drugs at a fixed ratio higher or lower than their IC50 values were added to cells. After incubation for the indicated time, cell viability was examined and Fa was calculated as the ratio between the cell death levels of drug-treated cells and those of untreated control cells. Combination index (CI) was determined by the CompuSyn software (Biosoft, Cambridge, UK).
The inventors tested candidate agents by first determining whether cytotoxicity was dependent on Bax but not on Bak. Bax^−/−Bak^−/− murine embryonic fibroblast (MEF) cell lines stably re-expressing only Bax or Bak were established (FIG. 3).

[3] = system: A549 cells with Bax shRNA or control shRNA vector; assay: Cell death in A549 cells with reduced Bax expression or control shRNA; assay type: cell-based, human; conditions: 48 hour incubation
Description: as §1
as §2, with “The synergistic effect between compound 106 and carboplatin or ABT-737 on cell viability was determined by Chou-Talalay median dose effect assay.” left out, “Different combinations of drugs at a fixed ratio higher or lower than their IC50 values were added to cells.” left out, “UK). […]” for “UK).”

[4] = system: Bax^+/− and Bax^−/− HCT116 cells; assay: Cell death in HCT116 cells with or without Bax expression; assay type: cell-based, human; conditions: 48 hour incubation
Description: as §1
as §2, with “The synergistic effect between compound 106 and carboplatin or ABT-737 on cell viability was determined by Chou-Talalay median dose effect assay.” left out, “Different combinations of drugs at a fixed ratio higher or lower than their IC50 values were added to cells.” left out, “UK). […]” for “UK).”

A549 cells = assay: Chou-Talalay synergism assay in A549 cells; assay type: cell-based, human; conditions: compound 106 (80-240 μM) with carboplatin (80-240 μM), constant ratio, 48 hours
Description: as §2, with “The synergistic effect between compound 106 and carboplatin or ABT-737 on cell viability was determined by Chou-Talalay median dose effect assay.” left out, “Different combinations of drugs at a fixed ratio higher or lower than their IC50 values were added to cells.” left out
(§3) To explore the potential of compound 106 functioning in combination chemotherapy, the inventors investigated whether compound 106 sensitizes tumor cells to die following simultaneous treatment with a chemotherapeutic drug. Carboplatin is currently used to treat non-small-cell lung cancer and human pancreatic cancer. To investigate whether the cytotoxic effects of compound 106 and carboplatin on human tumor cells were synergistic, the inventors carried out median-effect analysis using the Chou-Talalay method. After 48 hours of treatment, the cell death levels of A549 and PANC-1 cells treated with various concentrations of compound 106 and carboplatin at a constant dose ratio were measured, and the combination index (CI) values were determined.

PANC-1 cells = assay: Chou-Talalay synergism assay in PANC-1 cells; assay type: cell-based, human; conditions: compound 106 (3.3-240 μM) with carboplatin (3.3-240 μM), constant ratio, 48 hours
Description: as §2, with “The synergistic effect between compound 106 and carboplatin or ABT-737 on cell viability was determined by Chou-Talalay median dose effect assay.” left out, “Different combinations of drugs at a fixed ratio higher or lower than their IC50 values were added to cells.” left out
as §3

Bax = Bax (Homo sapiens, UniProt Q07812); conditions: non-canonical BH3 interaction site; cited from earlier work
Chain of Bax (Q07812 whole entry, species assumed): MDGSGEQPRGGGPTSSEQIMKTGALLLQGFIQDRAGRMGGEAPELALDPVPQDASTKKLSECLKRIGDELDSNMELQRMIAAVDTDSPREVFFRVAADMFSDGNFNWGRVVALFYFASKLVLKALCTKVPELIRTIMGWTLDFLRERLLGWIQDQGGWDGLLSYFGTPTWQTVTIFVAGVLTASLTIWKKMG

## CN(C)CC[C@H](CSc1ccccc1)Nc1ccc(S(=O)(=O)NC(=O)c2ccc(N3CCN(Cc4ccccc4-c4ccc(Cl)cc4)CC3)cc2)cc1[N+](=O)[O-] [ABT-737]
[1]
  binding affinity: bind with high affinity

## CC(C)CN1CC(OCc2cccnc2)CN(C(=O)Cc2ccc3c(c2)OCO3)CC1=O (stereo not drawn) [ZINC14531256, 4-(1,3-benzodioxol-5-ylacetyl)-1-isobutyl-6-(3-pyridinylmethoxy)-1,4-diazepan-2-one]
[2]
  rank by activity to induce Bax-dependent apoptosis: 6

## COc1ccccc1N1CCN(Cn2nc(-c3ccc(F)cc3)n(CC3CCCO3)c2=S)CC1 (stereo not drawn) [ZINC16076241, 5-(4-fluorophenyl)-2-[[4-(2-methoxyphenyl)piperazin-1-yl]methyl]-4-(oxolan-2-ylmethyl)-1,2,4-triazole-3-thione]
[2]
  rank by activity to induce Bax-dependent apoptosis: 5

## CCn1nc(C)c(CN2CCCC(N3CCN(c4ccc(OC)cc4)CC3)C2)c1C (stereo not drawn) [ZINC20110124, 1-{1-[(1-ethyl-3,5-dimethyl-1H-pyrazol-4-yl)methyl]-3-piperidinyl}-4-(4-methoxyphenyl)piperazine]
[2]
  rank by activity to induce Bax-dependent apoptosis: 2

## COc1ccccc1-c1nc2cc(N)cc(C(=O)NC3CCCN(Cc4ccccc4)C3)c2n1C (stereo not drawn) [ZINC 12150973, 5-amino-N-(1-benzyl-3-piperidinyl)-2-(2-methoxyphenyl)-1-methyl-1H-benzimidazole-7-carboxamide]
[2]
  rank by activity to induce Bax-dependent apoptosis: 4

## CSc1ccc(C2N=C3NCN(Cc4cccnc4)CN3c3nc4ccccc4n32)cc1 (stereo not drawn) [ZINC 13638227, 6-(4-(methylthio)phenyl)-2-(pyridin-3-ylmethyl)-2,3,4,6-tetrahydro-1H-benzo[4,5]imidazo[1,2-a][1,3,5]triazino[1,2-c][1,3,5]triazine]
[2]
  rank by activity to induce Bax-dependent apoptosis: 3

## N.N.O=C([O-])C1(C(=O)[O-])CCC1.[Pt+2] [carboplatin, cis-Diammine (1,1-cyclobutanedicarboxylato)platinum(II)]
[3]
  cell death, reduced Bax expression versus control shRNA: Decrease in Bax expression did not affect killing activities
[4]
  cell death, Bax expressing versus Bax lacking HCT116 cells: Lack of Bax expression in HCT116 cells did not affect killing activities

## COc1cccc(Cn2nc(C(=O)N3CCCC(O)C3)c3c2CCN(Cc2ccc(C)c(C)c2)C3)c1 (stereo not drawn) [compound 106, 1-{[5-(3,4-dimethylbenzyl)-1-(3-methoxybenzyl)-4,5,6,7-tetrahydro-1H-pyrazolo[4,3-c]pyridin-3-yl]carbonyl}-3-piperidinol]
[2]; MEF cell lines re-expressing only Bax or Bak, and Bax−/−Bak−/− MEFs
  cytotoxicity dependent on Bax but not on Bak (test of the 46 candidate agents): exhibited the highest Bax- and dose-dependent cytotoxicity
[2]
  rank by activity to induce Bax-dependent apoptosis: 1
A549 cells
  combination index (CI): smaller than 1
PANC-1 cells
  combination index (CI): smaller than 1

## CC[C@]1(O)C[C@H]2CN(CCc3c([nH]c4ccccc34)[C@@](C(=O)OC)(c3cc4c(cc3OC)N(C=O)[C@H]3[C@@](O)(C(=O)OC)[C@H](OC(C)=O)[C@]5(CC)C=CCN6CC[C@]43[C@@H]65)C2)C1 [vincristine]
[3]
  cell death, reduced Bax expression versus control shRNA: Decrease in Bax expression did not affect killing activities
[4]
  cell death, Bax expressing versus Bax lacking HCT116 cells: Lack of Bax expression in HCT116 cells did not affect killing activities

## BAM7
Bax
  Bax binding and activation: directly binds Bax and activates Bax by triggering Bax oligomerization
